Source: patent publication US20050020613A1, “Sustained release opioid formulations and method of use” (priority 2002, published 2005)

Type: in vivo
Conditions: dose equianalgesic to a 15 mg dose of hydrocodone
For COc1ccc2c3c1O[C@H]1[C@@H](O)C=C[C@H]4[C@@H](C2)N(C)CC[C@@]341 [Codeine], the “Equianalgesic Doses of Opioids: Calculated Dose” value was 90.0 mg.
In the case of COc1ccc2c3c1OC1C(=O)CC[C@H]4[C@@H](C2)N(C)CC[C@]314 (stereo partly shown) [Hydrocodone, 4,5-epoxy-3-methoxy-17-methylmorphinan-6-one], the “Equianalgesic Doses of Opioids: Calculated Dose” value is reported as 15.0 mg.
With CN1CC[C@]23CCCC[C@H]2[C@H]1Cc1ccc(O)cc13 [Levorphanol] the “Equianalgesic Doses of Opioids: Calculated Dose” value was 1.8 mg.
For CCC(=O)C(CC(C)N(C)C)(c1ccccc1)c1ccccc1 (stereo not shown) [Methadone], the “Equianalgesic Doses of Opioids: Calculated Dose” value was 9.0 mg.
For COc1ccc2c3c1OC1C(=O)CC[C@@]4(O)[C@@H](C2)N(C)CC[C@]314 (stereo partly shown) [Oxycodone, 4,5-epoxy-14-hydroxy-3-methoxy-17-methylmorphinan-6-one], the “Equianalgesic Doses of Opioids: Calculated Dose” value was 13.5 mg.
With Meperidine the “Equianalgesic Doses of Opioids: Calculated Dose” value was 135.0 mg.

Same assay, conditions: in vivo
In the case of CN1CC[C@]23c4c5ccc(O)c4O[C@H]2[C@@H](O)C=C[C@H]3[C@H]1C5 [Morphine], the “Equianalgesic Doses of Opioids: Calculated Dose” value is reported as 27.0 mg.
